In US11332503B2, “Peptides for treatment and prevention of hyperglycaemia” (UNIVERSITE DE STRASBOURG, priority 2017, dated 2022):
Positions of bridges follow the written chain, without caps; N, C: chain ends. Non-standard residues stand in square brackets, D forms with d. R8 = C=CCCCCCC[C@@](C)(N)C(=O)O; S5 = C=CCCC[C@](C)(N)C(=O)O

Tested on: human primary adipocytes
Assay: In vitro 2-deoxy-D-glucose-6-phosphate (DG6P) uptake in human primary adipocytes
Type: cell-based
Protocol: Human white visceral preadipocytes (Catalog #: C-12732; PromoCell) were purchased. The preadipocytes were seeded according to manufacturer's protocol and cultured in the Preadipocyte growth medium (Catalog #: C-27410; PromoCell) to confluence. Once confluence was reached, adipogenic differentiation was triggered through medium change to get mature human adipocytes. For the culture without insulin, Adipocyte Basal Medium (Catalog #: C-2431; PromoCell) without insulin was complemented with 5 g/L of […], 8 μg/mL d-Biotin, 400 ng/mL Dexamethasone (following manufacturer's procedure). Native peptides and their stapled counterparts as well as the scrambled peptides (corresponding to the same set of amino acids but rearranged randomly) were purchased from Eurogentec. Each peptide was diluted in saline and used at a dose of 2.5 ng per 10 cm square of cell culture surface area for in vitro studies or 2.5 ng of each peptide (A and B) was injected per mouse.
Mature adipocytes were cultured in 96 well plate. The adipocytes received the different peptides at the indicated concentration above. 24 hours later, the glucose absorption capacity if the treated cells were assessed using the Glucose Uptake Colorimetric Assay kit from Bio Vision (Catalog #: K676-100).
In vivo assessment of the effect of stapled peptides A and B injection in the adipose tissue of diet-induced diabetic WT mice. Mice were fed with a defined high fat/high glucose diet until they became intolerant to glucose (FIG. 5A, Prior Injection). Once the mice were glucose intolerant, these mice received an injection with a combination of the stapled peptides A and B directly in the subcutaneous fat and GTT was again performed a week later as depicted in FIG. 5B. […] FIG. 5C depicts pictures of the adipose tissue which received a combination of the stapled peptides A and B labelled with FAM (green dots indicated with the white arrows). […] A variety of modified stapled peptides were designed to test the effect of modifying the peptide sequence on insulin-independent glucose uptake into adipocytes. Peptides were obtained from CPC Scientific. Additional in vitro 2-deoxy-D-glucose-6-phosphate (DG6P) uptake results in human primary adipocytes for individual peptides of the present technology are provided in Tables 1-3.

[1] = Table 2 dose response, 0.001 μM

+Insulin: insulin-treated adipocytes, positive control of the DG6P uptake assay [reference compound]
2-DG6P (Table 1, +Insulin control): 94.2 pmol
2-DG6P compared to -Insulin (%) (Table 1, +Insulin control): 312.6%
2-DG6P (Table 2, +Ins control): 79.3 pmol
2-DG6P compared to -Insulin (%) (Table 2, +Ins control): 363.3%
2-DG6P (Table 3, +Insulin control): 87.9 pmol
2-DG6P compared to -Insulin (%) (Table 3, +Insulin control): 639.6%

H-LPHET-R8-RLSQKV-S5-TKLDCLMFVEPA-OH [AT004] (H-LPHET[R8]RLSQKV[S5]TKLDCLMFVEPA-OH; staple 6-13; SMILES CSCC[C@H](NC(=O)[C@H](CC(C)C)NC(=O)[C@H](CS)NC(=O)[C@H](CC(=O)O)NC(=O)[C@H](CC(C)C)NC(=O)[C@H](CCCCN)NC(=O)[C@@H](NC(=O)[C@]1(C)CCCC=CCCCCCC[C@@](C)(NC(=O)[C@@H](NC(=O)[C@H](CCC(=O)O)NC(=O)[C@H](Cc2c[nH]cn2)NC(=O)[C@@H]2CCCN2C(=O)[C@@H](N)CC(C)C)[C@@H](C)O)C(=O)N[C@@H](CCCNC(=N)N)C(=O)N[C@@H](CC(C)C)C(=O)N[C@@H](CO)C(=O)N[C@@H](CCC(N)=O)C(=O)N[C@@H](CCCCN)C(=O)N[C@@H](C(C)C)C(=O)N1)[C@@H](C)O)C(=O)N[C@@H](Cc1ccccc1)C(=O)N[C@H](C(=O)N[C@@H](CCC(=O)O)C(=O)N1CCC[C@H]1C(=O)N[C@@H](C)C(=O)O)C(C)C) [reference compound]
2-DG6P (Table 1, peptides at 50 μM): 29.5 pmol
2-DG6P compared to -Insulin (%) (Table 1, peptides at 50 μM): 98.0%

H-LPHET-R8-RLSQKV-S5-TKLDCLMFVEPA-OH [AT005] (H-LPHET[R8]RLSQKV[S5]TKLDCLMFVEPA-OH; staple 6-13; SMILES CSCC[C@H](NC(=O)[C@H](CC(C)C)NC(=O)[C@H](CS)NC(=O)[C@H](CC(=O)O)NC(=O)[C@H](CC(C)C)NC(=O)[C@H](CCCCN)NC(=O)[C@@H](NC(=O)[C@]1(C)CCCC=CCCCCCC[C@@](C)(NC(=O)[C@@H](NC(=O)[C@H](CCC(=O)O)NC(=O)[C@H](Cc2c[nH]cn2)NC(=O)[C@@H]2CCCN2C(=O)[C@@H](N)CC(C)C)[C@@H](C)O)C(=O)N[C@@H](CCCNC(=N)N)C(=O)N[C@@H](CC(C)C)C(=O)N[C@@H](CO)C(=O)N[C@@H](CCC(N)=O)C(=O)N[C@@H](CCCCN)C(=O)N[C@@H](C(C)C)C(=O)N1)[C@@H](C)O)C(=O)N[C@@H](Cc1ccccc1)C(=O)N[C@H](C(=O)N[C@@H](CCC(=O)O)C(=O)N1CCC[C@H]1C(=O)N[C@@H](C)C(=O)O)C(C)C) [reference compound]
2-DG6P (Table 1, peptides at 50 μM): 27.7 pmol
2-DG6P compared to -Insulin (%) (Table 1, peptides at 50 μM): 92.0%

H-LPHET-R8-RLSQKV-S5-TKLDCLMFVEPA-OH [AT006] (H-LPHET[R8]RLSQKV[S5]TKLDCLMFVEPA-OH; staple 6-13; SMILES CSCC[C@H](NC(=O)[C@H](CC(C)C)NC(=O)[C@H](CS)NC(=O)[C@H](CC(=O)O)NC(=O)[C@H](CC(C)C)NC(=O)[C@H](CCCCN)NC(=O)[C@@H](NC(=O)[C@]1(C)CCCC=CCCCCCC[C@@](C)(NC(=O)[C@@H](NC(=O)[C@H](CCC(=O)O)NC(=O)[C@H](Cc2c[nH]cn2)NC(=O)[C@@H]2CCCN2C(=O)[C@@H](N)CC(C)C)[C@@H](C)O)C(=O)N[C@@H](CCCNC(=N)N)C(=O)N[C@@H](CC(C)C)C(=O)N[C@@H](CO)C(=O)N[C@@H](CCC(N)=O)C(=O)N[C@@H](CCCCN)C(=O)N[C@@H](C(C)C)C(=O)N1)[C@@H](C)O)C(=O)N[C@@H](Cc1ccccc1)C(=O)N[C@H](C(=O)N[C@@H](CCC(=O)O)C(=O)N1CCC[C@H]1C(=O)N[C@@H](C)C(=O)O)C(C)C) [reference compound]
2-DG6P (Table 1, peptides at 50 μM): 30.7 pmol
2-DG6P compared to -Insulin (%) (Table 1, peptides at 50 μM): 102.0%

H-VE(AAB)TM-R8-EKRVLA-S5-LDKPPFLTQLHS-OH [AT017]
2-DG6P (Table 1, peptides at 50 μM): 55.4 pmol
2-DG6P compared to -Insulin (%) (Table 1, peptides at 50 μM): 184.0%

H-VECT(AAH)-R8-EKRVLA-S5-LDKPPFLTQLHS-OH [AT018]
2-DG6P (Table 1, peptides at 50 μM): 28.2 pmol
2-DG6P compared to -Insulin (%) (Table 1, peptides at 50 μM): 93.5%

H-VECTM-R8-EKRVLA-S5-LD-OH (H-VECTM[R8]EKRVLA[S5]LD-OH; staple 6-13; SMILES CSCC[C@H](NC(=O)[C@@H](NC(=O)[C@H](CS)NC(=O)[C@H](CCC(=O)O)NC(=O)[C@@H](N)C(C)C)[C@@H](C)O)C(=O)N[C@]1(C)CCCCCCC=CCCC[C@@](C)(C(=O)N[C@@H](CC(C)C)C(=O)N[C@@H](CC(=O)O)C(=O)O)NC(=O)[C@H](C)NC(=O)[C@H](CC(C)C)NC(=O)[C@H](C(C)C)NC(=O)[C@H](CCCNC(=N)N)NC(=O)[C@H](CCCCN)NC(=O)[C@H](CCC(=O)O)NC1=O) [AT016]
2-DG6P (Table 1, peptides at 50 μM): 51.5 pmol
2-DG6P compared to -Insulin (%) (Table 1, peptides at 50 μM): 170.9%
2-DG6P (Table 3 dose response, 1 μM): 23.7 pmol
2-DG6P compared to -Insulin (%) (Table 3 dose response, 1 μM): 172.4%
2-DG6P (Table 3 dose response, 10 μM): 38.6 pmol
2-DG6P compared to -Insulin (%) (Table 3 dose response, 10 μM): 280.6%
2-DG6P (Table 3 dose response, 100 μM): 51.4 pmol
2-DG6P compared to -Insulin (%) (Table 3 dose response, 100 μM): 373.7%

H-VECTM-R8-EKRVLA-S5-LDKP-OH (H-VECTM[R8]EKRVLA[S5]LDKP-OH; staple 6-13; SMILES CSCC[C@H](NC(=O)[C@@H](NC(=O)[C@H](CS)NC(=O)[C@H](CCC(=O)O)NC(=O)[C@@H](N)C(C)C)[C@@H](C)O)C(=O)N[C@]1(C)CCCCCCC=CCCC[C@@](C)(C(=O)N[C@@H](CC(C)C)C(=O)N[C@@H](CC(=O)O)C(=O)N[C@@H](CCCCN)C(=O)N2CCC[C@H]2C(=O)O)NC(=O)[C@H](C)NC(=O)[C@H](CC(C)C)NC(=O)[C@H](C(C)C)NC(=O)[C@H](CCCNC(=N)N)NC(=O)[C@H](CCCCN)NC(=O)[C@H](CCC(=O)O)NC1=O) [AT015]
2-DG6P (Table 1, peptides at 50 μM): 35.7 pmol
2-DG6P compared to -Insulin (%) (Table 1, peptides at 50 μM): 118.6%
2-DG6P (Table 3 dose response, 1 μM): 16.6 pmol
2-DG6P compared to -Insulin (%) (Table 3 dose response, 1 μM): 121.0%
2-DG6P (Table 3 dose response, 10 μM): 28.9 pmol
2-DG6P compared to -Insulin (%) (Table 3 dose response, 10 μM): 210.6%
2-DG6P (Table 3 dose response, 100 μM): 39.2 pmol
2-DG6P compared to -Insulin (%) (Table 3 dose response, 100 μM): 284.9%

H-VECTM-R8-EKRVLA-S5-LDKPPF-OH (H-VECTM[R8]EKRVLA[S5]LDKPPF-OH; staple 6-13; SMILES CSCC[C@H](NC(=O)[C@@H](NC(=O)[C@H](CS)NC(=O)[C@H](CCC(=O)O)NC(=O)[C@@H](N)C(C)C)[C@@H](C)O)C(=O)N[C@]1(C)CCCCCCC=CCCC[C@@](C)(C(=O)N[C@@H](CC(C)C)C(=O)N[C@@H](CC(=O)O)C(=O)N[C@@H](CCCCN)C(=O)N2CCC[C@H]2C(=O)N2CCC[C@H]2C(=O)N[C@@H](Cc2ccccc2)C(=O)O)NC(=O)[C@H](C)NC(=O)[C@H](CC(C)C)NC(=O)[C@H](C(C)C)NC(=O)[C@H](CCCNC(=N)N)NC(=O)[C@H](CCCCN)NC(=O)[C@H](CCC(=O)O)NC1=O) [AT014]
2-DG6P (Table 1, peptides at 50 μM): 58.8 pmol
2-DG6P compared to -Insulin (%) (Table 1, peptides at 50 μM): 195.1%

H-VECTM-R8-EKRVLA-S5-LDKPPFLTQLHS-NH2 [AT003]
2-DG6P (Table 1, peptides at 50 μM): 46.2 pmol
2-DG6P compared to -Insulin (%) (Table 1, peptides at 50 μM): 153.3%

H-VECTM-R8-EKRVLA-S5-LDKPPFLTQLHS-OH [AT001]
2-DG6P (Table 1, peptides at 50 μM): 44.2 pmol
2-DG6P compared to -Insulin (%) (Table 1, peptides at 50 μM): 146.8%
2-DG6P [1]: 19.9 pmol
2-DG6P compared to -Insulin (%) [1]: 91.2%
2-DG6P (Table 2 dose response, 0.01 μM): 21.3 pmol
2-DG6P compared to -Insulin (%) (Table 2 dose response, 0.01 μM): 97.5%
2-DG6P (Table 2 dose response, 0.1 μM): 22.3 pmol
2-DG6P compared to -Insulin (%) (Table 2 dose response, 0.1 μM): 102.0%
2-DG6P (Table 2 dose response, 1 μM): 23.9 pmol
2-DG6P compared to -Insulin (%) (Table 2 dose response, 1 μM): 109.6%
2-DG6P (Table 2 dose response, 10 μM): 31.7 pmol
2-DG6P compared to -Insulin (%) (Table 2 dose response, 10 μM): 145.2%
2-DG6P (Table 2 dose response, 100 μM): 47.2 pmol
2-DG6P compared to -Insulin (%) (Table 2 dose response, 100 μM): 216.1%

H-VECTM-R8-EKRVLA-S5-LDKPPFLTQLHS-OH [AT007]
2-DG6P (Table 1, peptides at 50 μM): 57.7 pmol
2-DG6P compared to -Insulin (%) (Table 1, peptides at 50 μM): 191.5%
2-DG6P (Table 2 dose response, 0.1 μM): 23.2 pmol
2-DG6P compared to -Insulin (%) (Table 2 dose response, 0.1 μM): 106.5%
2-DG6P (Table 2 dose response, 1 μM): 24.0 pmol
2-DG6P compared to -Insulin (%) (Table 2 dose response, 1 μM): 110.1%
2-DG6P (Table 2 dose response, 10 μM): 36.0 pmol
2-DG6P compared to -Insulin (%) (Table 2 dose response, 10 μM): 165.0%
2-DG6P (Table 2 dose response, 100 μM): 55.5 pmol
2-DG6P compared to -Insulin (%) (Table 2 dose response, 100 μM): 254.3%

H-VECTM-R8-EKRVLA-S5-LDKPPFLTQLHS-OH [AT021]
2-DG6P (Table 1, peptides at 50 μM): 37.5 pmol
2-DG6P compared to -Insulin (%) (Table 1, peptides at 50 μM): 124.6%

H-VECTM-S5-EKR-S5-LALLDKPPFLTQLHS-OH [AT008]
2-DG6P (Table 1, peptides at 50 μM): 53.3 pmol
2-DG6P compared to -Insulin (%) (Table 1, peptides at 50 μM): 177.0%
